{"source": "patent US20240158430A1", "about": "“NOVEL COMPOUND OR SALT THEREOF, AND ANTITUMOR ACTIVATOR CONTAINING SAME AS ACTIVE INGREDIENT” (AKITA UNIVERSITY, priority 2021, published 2024)", "system": "colorectal cancer cell line DLD-1", "assay": "Cell growth inhibitory activity, DLD-1", "type": "cell-based", "experimental": "The cell growth inhibitory activity against a colorectal cancer cell line HCT116 was measured. As an index of cell growth inhibitory activity, a concentration at which cell growth was inhibited by 50% as compared with a control (IC50) was used. The method is as follows. HCT116 was added to a 6-well plate by 5×10^4, compounds having various concentrations were added after 24 hours, and the number of cells was counted after 72 hours of culture. As the control, DMSO was used in an amount equal to the amount added in accordance with the addition concentration of the highest-concentration compound. The number of cells at each concentration relative to the control was expressed as a percentage.\nThe method is as described above.\nThe cell growth inhibitory activity (IC50) of each of curcumin, GO-Y199, and GO-Y206 against the colorectal cancer cell lines DLD-1 and HCT116 and the gastric cancer cell lines KATO III and H-111-TC was measured. The method is as described above.", "note": "Like-named read-outs stand apart in the source and are kept apart here.", "data": [{"smiles": "COCOc1cc(/C=C/C(=O)CC(SCCOCCOCCOCCOCc2cn([C@@H]3O[C@H](CO)[C@@H](O[C@@H]4O[C@H](CO)[C@H](O)[C@H](O)[C@H]4O)[C@H](O)[C@H]3O)nn2)c2cc(OCOC)cc(OCOC)c2)cc(OCOC)c1", "note": "(stereo partly shown) [GO-Y199]", "values": [{"measurement": "IC50", "setting": "Table 4, 72 hours, read-out: IC50 DLD-1", "result": 0.26, "unit": "µM"}, {"measurement": "GO-Y199 vs GO-Y030 (IC50 comparison), DLD-1", "setting": "Table 5, ratio of IC50", "result": 0.36}, {"measurement": "GO-Y199 vs curcumin (IC50 comparison), DLD-1", "setting": "Table 5, ratio of IC50", "result": 0.014}, {"measurement": "IC50", "setting": "Table 6, read-out: IC50 (μM) DLD-1", "result": 0.85, "unit": "µM"}]}]}
